Laboratory results reported in patent publication US20230037453A1, “PREPARATION FOR USE AS VASORELAXANT” (Evonik Operations GmbH, priority 2020, published 2023).

tested on: mice mesenteric arteries; test: Vascular reactivity: vasorelaxation of phenylephrine-precontracted mesenteric arteries (wire or pressure myograph); type: cell-based; conditions: phenylephrine-precontracted mice mesenteric arteries, increasing doses 5 - 300 µg/mL
Procedure: Second-order branches of the mesenteric arterial tree were removed from mice to perform vascular studies. […] First, an analysis of vascular reactivity curves was performed. In particular, vasoconstriction was assessed with 80 mmol/L of KCI or with increasing doses of phenylephrine (from 10^-9 M to 10^-6 M) in control conditions. Endothelium-dependent and -independent relaxations were assessed by measuring the dilatory responses of mesenteric arteries to cumulative concentrations of acetylcholine (from 10^-9 M to 10^-6 M) or nitroglycerine (from 10^-9 M to 10^-6 M) respectively, in vessels precontracted with phenylephrine at the dose necessary to obtain a similar level of precontraction in each ring (80% of initial KCI-evoked contraction). Caution was taken to avoid endothelial damage; functional integrity was reflected by the response to acetylcholine (from 10^-9 M to 10^-6 M). […]
F) Comparison of vasorelaxant effect of AvailOm®, ω 3-FA, ω 3-EE or L-Lysine. Statistical analyses were performed using two-way ANOVA followed Bonferroni post-hoc test. *p<0.05; **p<0.01, ***p<0.001.

Compound | direct vasorelaxant action (dose-response)
NCCCC[C@H](N)C(=O)O [L-Lysine] | did not evoke any vasorelaxant effect

same assay, conditions: single anthocyanins 1 - 100 µg/mL, dose-response curves

Compound | vasorelaxation reached
C[C@@H]1O[C@@H](OC[C@H]2O[C@@H](Oc3cc4c(O)cc(O)cc4[o+]c3-c3ccc(O)c(O)c3)[C@H](O)[C@@H](O)[C@@H]2O)[C@H](O)[C@H](O)[C@H]1O [C3-rut, Cyanidin-3-rutinoside] | ~36,5%
OC[C@H]1O[C@@H](Oc2cc3c(O)cc(O)cc3[o+]c2-c2cc(O)c(O)c(O)c2)[C@H](O)[C@@H](O)[C@H]1O [DP3-gal, Delphinidin-3-galactoside] | about 32,5%

same assay, conditions: single anthocyanins 1 - 100 µg/mL, phenylephrine-precontracted mice mesenteric arteries

Compound | direct vascular action: dose-dependent vasorelaxation compared with Healthberry 865
OC[C@H]1O[C@@H](Oc2cc3c(O)cc(O)cc3[o+]c2-c2ccc(O)c(O)c2)[C@H](O)[C@@H](O)[C@H]1O [C3-gal, Cyanidin-3-galactoside] | able to reproduce the direct vasorelaxant effect of Healthberry 865®
OC[C@H]1O[C@@H](Oc2cc3c(O)cc(O)cc3[o+]c2-c2ccc(O)c(O)c2)[C@H](O)[C@@H](O)[C@@H]1O [C3-glu, Cyanidin-3-glucoside] | none of the single anthocyanins was able to evoke a dose-dependent vasorelaxation comparable to that observed after Healthberry 865® administration
C[C@@H]1O[C@@H](OC[C@H]2O[C@@H](Oc3cc4c(O)cc(O)cc4[o+]c3-c3ccc(O)c(O)c3)[C@H](O)[C@@H](O)[C@@H]2O)[C@H](O)[C@H](O)[C@H]1O [C3-rut, Cyanidin-3-rutinoside] | none of the single anthocyanins was able to evoke a dose-dependent vasorelaxation comparable to that observed after Healthberry 865® administration
Oc1cc(O)c2cc(O[C@H]3OC[C@H](O)[C@H](O)[C@H]3O)c(-c3cc(O)c(O)c(O)c3)[o+]c2c1 [DP3-ara, Delphinidin-3-arabinoside] | none of the single anthocyanins was able to evoke a dose-dependent vasorelaxation comparable to that observed after Healthberry 865® administration
OC[C@H]1O[C@@H](Oc2cc3c(O)cc(O)cc3[o+]c2-c2cc(O)c(O)c(O)c2)[C@H](O)[C@@H](O)[C@H]1O [DP3-gal, Delphinidin-3-galactoside] | none of the single anthocyanins was able to evoke a dose-dependent vasorelaxation comparable to that observed after Healthberry 865® administration
OC[C@H]1O[C@@H](Oc2cc3c(O)cc(O)cc3[o+]c2-c2cc(O)c(O)c(O)c2)[C@H](O)[C@@H](O)[C@@H]1O [DP3-glu, Delphinidin-3-glucoside] | none of the single anthocyanins was able to evoke a dose-dependent vasorelaxation comparable to that observed after Healthberry 865® administration
COc1cc(-c2[o+]c3cc(O)cc(O)c3cc2O[C@@H]2O[C@H](CO)[C@H](O)[C@H](O)[C@H]2O)cc(OC)c1O [MAL3-gal, Malvidin-3-galactoside] | none of the single anthocyanins was able to evoke a dose-dependent vasorelaxation comparable to that observed after Healthberry 865® administration
COc1cc(-c2[o+]c3cc(O)cc(O)c3cc2O[C@@H]2O[C@H](CO)[C@@H](O)[C@H](O)[C@H]2O)cc(OC)c1O [MAL3-glu, Malvidin-3-glucoside] | none of the single anthocyanins was able to evoke a dose-dependent vasorelaxation comparable to that observed after Healthberry 865® administration
COc1cc(-c2[o+]c3cc(O)cc(O)c3cc2O[C@@H]2O[C@H](CO)[C@@H](O)[C@H](O)[C@H]2O)cc(O)c1O [PT3-glu, Petunidin-3-glucoside] | none of the single anthocyanins was able to evoke a dose-dependent vasorelaxation comparable to that observed after Healthberry 865® administration
Peonidin-3-galactoside [PEO3-gal] | none of the single anthocyanins was able to evoke a dose-dependent vasorelaxation comparable to that observed after Healthberry 865® administration
